# In US20260241041A1, “FLUORESCENCE IMAGING REAGENT FOR LIPID DROPLETS IN TISSUES AND CELLS” (NATIONAL UNIVERSITY CORPORATION GUNMA UNIVERSITY, priority 2021, published 2026):
# Key:
# [1] = green fluorescence; cited from earlier work
# [2] = Measurement of fluorescence lifetime in solvents; assay type: physicochemical
# Procedure: The fluorescence lifetime (τf) of the compound in each solvent was measured using a compact fluorescence lifetime measurement apparatus (Quntaurus-Tau, manufactured by Hamamatsu Photonics K. K.).
# The compounds of the present invention synthesized in the above Synthesis Examples (FIG. 4; DBC30, DBC30-Bu, and DBC30-Ph) contain an 8-dibutylaminocoumarine skeleton. […] The maximum absorption wavelength was found at 401 to 412 nm, and the maximum fluorescence wavelength was found at 467 to 484 nm, which corresponds to blue fluorescence. […] The fluorescence quantum yield was not less than 0.9 in any of the solvents.
# [3] = Solubility / precipitation in physiological saline; assay type: physicochemical
# Procedure: (§1) Fluorescence imaging of lipid droplets in a tissue, and of an adipose tissue, using DBC30, DBC30-Bu, or DBC30-Ph is described below. Since the DBC30 series has remarkably low solubility in water (physiological saline), they cannot be easily directly dissolved. […] Therefore, they cannot be administered to mice. In view of this, the 5 mM stock solution was added (at a volume ratio of 10%) to physiological saline supplemented with 10% bovine serum albumin. […] Regarding administration of MNs-NB, a stock solution in DMSO is directly administered to mice. Since administration of DMSO may cause death of mice from shock, the administration method in the present invention is thought to be a safer method. Here, 100 to 200 μL of 500 μM solution (50 to 100 nmol) was administered to the tail vein of mice under anesthesia, and a fluorescence imaging experiment was carried out. In the present experiment, a microscope capable of acquiring fluorescence lifetime images as well as fluorescence intensity images (FLIM: fluorescence lifetime imaging microscope) was used.
# [4] = system: lipid droplets in HeLa cells; experiment: Fluorescence imaging of lipid droplets in cultured cells (luminescence intensity vs Lipi-Blue); assay type: cell-based; conditions: 400 μM oleic acid 48 h, reagent 500 nM, 60 min, excitation 430 nm, compared with Lipi-Blue
# Procedure: (§2) Fluorescence intensity imaging and fluorescence lifetime imaging were carried out using a confocal laser microscope (IX-73; manufactured by Olympus Corporation) equipped with a confocal scanner (DCS-120; Becker & Hickl).
# Imaging of lipid droplets in cultured cells was studied by a comparative experiment on the performance between DBC30, DBC30-Bu, and DBC30-Ph, and a commercially available blue imaging reagent (Lipi-Blue). The investigated items were the luminescence intensity and the photostability.
# Each fluorescent reagent was added to a final concentration of 500 nM to HeLa cells cultured for 48 hours in the presence of 400 μM oleic acid. Culture was then performed for 60 minutes, and the cultured cells were irradiated with an excitation light (DBC30, DBC30-Bu, DBC30-Ph, Lipi-Blue: 430 nm) required for the imaging, followed by observation using a confocal laser microscope.
# [5] = Measurement of maximum absorption wavelength, maximum fluorescence wavelength and fluorescence quantum yield in solvents; assay type: physicochemical
# Procedure: Using a luminescent quantum yield measurement apparatus ([…]-01, manufactured by Hamamatsu Photonics K. K.), the maximum absorption wavelength (λabs/nm), the maximum fluorescence wavelength (λflu/nm), and the fluorescence quantum yield (Φf) of the compound in each solvent were measured. […] The fluorescence quantum yield was not less than 0.9 in any of the solvents.
# [6] = system: lipid droplets in HeLa cells; experiment: Co-staining with BODIPY 493/503 for lipid droplet selectivity; assay type: cell-based; conditions: 400 μM oleic acid, 100 nM, 30 min, excitation 430 nm, observation 460-500 nm
# Procedure: In order to clarify the lipid droplet selectivities of DBC30, DBC30-Bu, and DBC30-Ph, co-staining experiments were carried out with BODIPY 493/503, which is a commercially available green fluorescent lipid droplet reagent (FIGS. 8 to 10). Each fluorescent reagent was added to a final concentration of 100 nM to HeLa cells cultured for 48 hours in the presence of 400 μM oleic acid. Culture was then performed for 30 minutes, and the cultured cells were irradiated with an excitation light required for the imaging, followed by observation. For DBC30, DBC30-Bu and DBC30-Ph, the excitation wavelength was 430 nm, and the observation wavelength was 460-500 nm. For BODIPY 493/503, the excitation wavelength was 488 nm, and the observation wavelength was 510 to 560 nm.
# [7] = system: adipose tissues and lipid droplets; experiment: Fluorescence imaging of adipose tissues, skeletal muscle and kidney of a mouse; assay type: in vivo, mouse (BALB/cAJcl); conditions: 50 nmol
# Procedure: as §2, §1
# In an individual, various adipose tissues and lipid droplets are present. Their imaging was carried out using DBC30. […]
# [8] = system: lipid droplets in the liver; experiment: Fluorescence intensity and lifetime imaging of liver lipid droplets in normal and fatty-liver model mice; assay type: in vivo, mice (BALB/cAJcl); conditions: 50 nmol, tail vein
# Procedure: as §2
# as §1, with “used. […]” for “used.”
# [9] = system: lipid droplets in HeLa cells; experiment: Photostability in cells under repeated confocal scanning; assay type: cell-based; conditions: 400 μM oleic acid, 100 nM, 500 times of scanning, excitation 430 nm
# Procedure: Photostability is an important factor in long-term measurement for, for example, tracing the processes of formation, fusion, and degradation of lipid droplets. Each fluorescent reagent was added to a final concentration of 100 nM (DBC30, C6-OBu, or BODIPY493/503) or 2 μM (Lipi-Blue) to HeLa cells cultured for 48 hours in the presence of 400 μM oleic acid. Culture was then performed for 30 minutes, and the cultured cells were irradiated with an excitation light (DBC30, DBC30-Bu, Lipi-Blue: 430 nm; BODIPY 493/503: 488 nm) required for the imaging, followed by acquisition of imaging images using a confocal laser microscope. The photostability was evaluated by 500 times of scanning in which a set of 50 times of scanning was repeated.
# lipid droplets = experiment: Multicolor imaging with Mito Tracker Green and Lyso Tracker Red; assay type: cell-based; conditions: co-staining with Mito Tracker Green and Lyso Tracker Red
# Description: Mito Tracker Green (excitation wavelength, 488 nm; observation wavelength, 510 to 560 nm), which is a green fluorescent reagent showing accumulation in mitochondria, and Lyso Tracker Red (excitation wavelength, 570 nm; observation wavelength, >590 nm), which is a red fluorescent reagent showing accumulation in lysosomes, were used.
# [10] = 5 mM DMSO stock added at 10% to physiological saline supplemented with 10% bovine serum albumin
# [11] = 5 mM DMSO stock added at volume ratio of 10% to physiological saline
τf (fluorescence lifetime) ([2]; in Bu2O (dibutyl ether)),τf (fluorescence lifetime) ([2]; in MeCN (acetonitrile)),"precipitation [3, 10]",λabs max ([5]; in Bu2O (dibutyl ether)),λflu max ([5]; in Bu2O (dibutyl ether)),φl (fluorescence quantum yield) ([5]; in Bu2O (dibutyl ether)),λabs max ([5]; in MeCN (acetonitrile)),λflu max ([5]; in MeCN (acetonitrile)),φl (fluorescence quantum yield) ([5]; in MeCN (acetonitrile)),Compound,fluorescence wavelength [1],"precipitation [3, 11]",fluorescence intensity in cells [4],lipid droplet selectivity (co-staining with BODIPY 493/503) [6],imaging of lipid droplets in kidney [7],"imaging of subcutaneous adipose tissue, abdominal adipose tissue, skeletal muscle and kidney [7]",imaging of lipid droplets in liver ([8]; fatty-liver model mouse (Week 2)),imaging of lipid droplets in liver ([8]; mouse fed with a normal diet),photostability in cells [9],use in multicolor imaging (lipid droplets)
,,,,,,,,,CC1=CC(C)=[N+]2C1=C(C)c1c(C)cc(C)n1[B-]2(F)F [BODIPY 493/503],about 500 nm,,,,,,,,,
2.29 ns,2.51 ns,could be suppressed,399 nm,467 nm,0.92,412 nm,484 nm,0.92,CCCCN(CCCC)c1ccc2cc(-c3nc4ccccc4n3-c3ccccc3)c(=O)oc2c1 [DBC30-Ph],,"precipitation of DBC30, DBC30-Bu, or DBC30-Ph occurs",higher fluorescence intensities than the HeLa cells to which Lipi-Blue was added,found to have lipid droplet selectivity,,,,,,
2.29 ns,2.55 ns,could be suppressed,404 nm,468 nm,0.93,410 nm,484 nm,0.90,CCCCN(CCCC)c1ccc2cc(-c3nc4ccccc4n3C)c(=O)oc2c1 [DBC30],,"precipitation of DBC30, DBC30-Bu, or DBC30-Ph occurs",higher fluorescence intensities than the HeLa cells to which Lipi-Blue was added,found to have lipid droplet selectivity,small lipid droplets distributed in tubular cells could be imaged,Fluorescence derived from DBC30 was found from sites where lipid is accumulated,large lipid droplets were imaged over the entire liver surface,small lipid droplets could be found in hepatocytes,higher photostability compared to the conventional reagents such as Lipi-Blue,can be used for multicolor imaging
